Data reported in patent publication US10660967B2, “Curcumin conjugates and methods of use thereof” (priority 2016, dated 2020).

System: carrageenan induced paw edema
Assay: Anti-inflammatory activity: acute carrageenan induced paw edema in rats
Type: in vivo, Wister rats
Settings: 10 mg kg^−1 indomethacin mol equivalent; for % inhibition of edema / Mean edema thickness: intraperitoneally; for Mean edema thickness: mean ± SE; for Potency (% inhibition of edema relative to that of indomethacin reference standard): at 4 h effect
Procedure: The anti-inflammatory activity of the tested compounds was determined in vivo by the acute carrageenan induced paw edema standard method in rats. See, Naumov, et al., Bioorg. Med. Chem. Lett, 25: 2314-2320 (2015), Tiwari, et al., Org. Biomol. Chem, 12: 7238-7249 (2014), Girgis, et al., Eur. J. Med. Chem, 50: 1-8 (2012), Barsoum, et al., Eur. J. Med. Chem, 44: 2172-2177 (2009), Girgis, et al., Eur. J. Med. Chem, 44: 1972-1977 (2009), Girgis, et al., Eur. J. Med. Chem, 44: 1257-1264 (2009), Girgis, et al., Eur. J. Med. Chem, 44: 91-100 (2009), Girgis, et al., Eur. J. Med. Chem, 43: 2116-2121 (2008), Girgis, et al., Bioorg. Med. Chem, 14: 8527-8532 (2006), and Barsoum, et al., Bioorg. Med. Chem, 14: 3929-3937 (2006).
Adult Wister rats of either sex (pregnant female animals were excluded) weighing 120-150 g were divided into 18 groups of 6 animals each. […] The control group was given DMSO only. Carrageenan paw edema was induced by subcutaneous injection of freshly prepared 1% solution of carrageenan in saline (0.9%, 0.1 ml per rat) into subplantar tissue of the right hind paw of rats. The thickness of the paw was measured (in mm) after successive time intervals (1, 2,3,4 and 24 h) and compared with the initial hind paw thickness of each rat for determining the edema thickness. Data were collected, checked, revised and analyzed. Quantitative variables from normal distribution were expressed as means±SE “standard error”. The anti-inflammatory activity was expressed as percentage inhibition of edema thickness in treated animals in comparison with the control group according to eqn. (1)
Where, Vc and Vt are the mean of edema paw thickness for the control and tested compound treated animal groups, respectively.

COc1cc(/C=C/C(=O)CC(=O)/C=C/c2ccc(OC(=O)[C@H](CCC(N)=O)NC(=O)OC(C)(C)C)c(OC)c2)ccc1OC(=O)[C@H](CCC(N)=O)NC(=O)OC(C)(C)C [Compound 32]
% inhibition of edema (1 h): 10%
Mean edema thickness (1 h): 2.16 ± 0.17 mm
% inhibition of edema (2 h): 16%
Mean edema thickness (2 h): 1.73 ± 0.09 mm
% inhibition of edema (3 h): 32%
Mean edema thickness (3 h): 1.22 ± 0.12 mm
% inhibition of edema (4 h): 41%
Mean edema thickness (4 h): 0.83 ± 0.06 mm
% inhibition of edema (24 h): 57%
Mean edema thickness (24 h): 0.36 ± 0.02 mm
Potency (% inhibition of edema relative to that of indomethacin reference standard): 47

COc1cc(/C=C/C(=O)CC(=O)/C=C/c2ccc(OC(=O)[C@H](Cc3c[nH]c4ccccc34)NC(=O)OCc3ccccc3)c(OC)c2)ccc1OC(=O)[C@H](Cc1c[nH]c2ccccc12)NC(=O)OCc1ccccc1 [Compound 12]
% inhibition of edema (1 h): 37%
Mean edema thickness (1 h): 1.52 ± 0.27 mm
% inhibition of edema (2 h): 28%
Mean edema thickness (2 h): 1.48 ± 0.22 mm
% inhibition of edema (3 h): 24%
Mean edema thickness (3 h): 1.36 ± 0.26 mm
% inhibition of edema (4 h): 12%
Mean edema thickness (4 h): 1.23 ± 0.19 mm
% inhibition of edema (24 h): 1%
Mean edema thickness (24 h): 0.82 ± 0.17 mm
Potency (% inhibition of edema relative to that of indomethacin reference standard): 14

COc1cc(/C=C/C(=O)CC(=O)/C=C/c2ccc(OC(=O)[C@@H](NC(=O)OCc3ccccc3)C(C)C)c(OC)c2)ccc1OC(=O)[C@@H](NC(=O)OCc1ccccc1)C(C)C [Compound 8]
% inhibition of edema (1 h): 51%
Mean edema thickness (1 h): 1.17 ± 0.26 mm
% inhibition of edema (2 h): 20%
Mean edema thickness (2 h): 1.65 ± 0.23 mm
% inhibition of edema (3 h): 19%
Mean edema thickness (3 h): 1.45 ± 0.20 mm
% inhibition of edema (4 h): 12%
Mean edema thickness (4 h): 1.23 ± 0.19 mm
% inhibition of edema (24 h): 2%
Mean edema thickness (24 h): 0.81 ± 0.11 mm
Potency (% inhibition of edema relative to that of indomethacin reference standard): 14

COc1cc(/C=C/C(=O)CC(=O)/C=C/c2ccc(O)c(OC)c2)ccc1O [Compound 4]
% inhibition of edema (1 h): 12%
Mean edema thickness (1 h): 2.12 ± 0.19 mm
% inhibition of edema (2 h): 60%
Mean edema thickness (2 h): 0.82 ± 0.11 mm
% inhibition of edema (3 h): 75%
Mean edema thickness (3 h): 0.45 ± 0.08 mm
% inhibition of edema (4 h): 85%
Mean edema thickness (4 h): 0.21 ± 0.08 mm
% inhibition of edema (24 h): 36%
Mean edema thickness (24 h): 0.53 ± 0.10 mm
Potency (% inhibition of edema relative to that of indomethacin reference standard): 98

COc1cc(/C=C/C(=O)CC(=O)/C=C/c2ccc(OC(=O)[C@H](CCSC)NC(=O)OCC3c4ccccc4-c4ccccc43)c(OC)c2)ccc1OC(=O)[C@H](CCSC)NC(=O)OCC1c2ccccc2-c2ccccc21 [Compound 17]
% inhibition of edema (1 h): 46%
Mean edema thickness (1 h): 1.30 ± 0.04 mm
% inhibition of edema (2 h): 73%
Mean edema thickness (2 h): 0.56 ± 0.17 mm
% inhibition of edema (3 h): 75%
Mean edema thickness (3 h): 0.45 ± 0.18 mm
% inhibition of edema (4 h): 98%
Mean edema thickness (4 h): 0.03 ± 0.01 mm
% inhibition of edema (24 h): 23%
Mean edema thickness (24 h): 0.64 ± 0.02 mm
Potency (% inhibition of edema relative to that of indomethacin reference standard): 113

COc1cc(/C=C/C(=O)CC(=O)/C=C/c2ccc(OC(=O)CNC(=O)OCc3ccccc3)c(OC)c2)ccc1OC(=O)CNC(=O)OCc1ccccc1 [Compound 5]
% inhibition of edema (1 h): 64%
Mean edema thickness (1 h): 0.87 ± 0.16 mm
% inhibition of edema (2 h): 32%
Mean edema thickness (2 h): 1.41 ± 0.19 mm
% inhibition of edema (3 h): 37%
Mean edema thickness (3 h): 1.13 ± 0.22 mm
% inhibition of edema (4 h): 34%
Mean edema thickness (4 h): 0.92 ± 0.20 mm
% inhibition of edema (24 h): 0%
Mean edema thickness (24 h): 0.83 ± 0.19 mm
Potency (% inhibition of edema relative to that of indomethacin reference standard): 39

COc1cc(/C=C/C(=O)CC(=O)/C=C/c2ccc(OC(=O)[C@H](C)NC(=O)OCc3ccccc3)c(OC)c2)ccc1OC(=O)[C@H](C)NC(=O)OCc1ccccc1 [Compound 6]
% inhibition of edema (1 h): 56%
Mean edema thickness (1 h): 1.05 ± 0.24 mm
% inhibition of edema (2 h): 23%
Mean edema thickness (2 h): 1.59 ± 0.21 mm
% inhibition of edema (3 h): 22%
Mean edema thickness (3 h): 1.40 ± 0.19 mm
% inhibition of edema (4 h): 12%
Mean edema thickness (4 h): 1.23 ± 0.25 mm
% inhibition of edema (24 h): 0%
Mean edema thickness (24 h): 0.83 ± 0.17 mm
Potency (% inhibition of edema relative to that of indomethacin reference standard): 14

CC[C@H](C)[C@H](NC(=O)OC(C)(C)C)C(=O)Oc1ccc(/C=C/C(=O)CC(=O)/C=C/c2ccc(OC(=O)[C@@H](NC(=O)OC(C)(C)C)[C@@H](C)CC)c(OC)c2)cc1OC [Compound 31]
% inhibition of edema (1 h): 33%
Mean edema thickness (1 h): 1.61 ± 0.11 mm
% inhibition of edema (2 h): 38%
Mean edema thickness (2 h): 1.27 ± 0.07 mm
% inhibition of edema (3 h): 49%
Mean edema thickness (3 h): 0.91 ± 0.05 mm
% inhibition of edema (4 h): 51%
Mean edema thickness (4 h): 0.69 ± 0.02 mm
% inhibition of edema (24 h): 41%
Mean edema thickness (24 h): 0.49 ± 0.03 mm
Potency (% inhibition of edema relative to that of indomethacin reference standard): 59

COc1cc(/C=C/C(=O)CC(=O)/C=C/c2ccc(OC(=O)CN)c(OC)c2)ccc1OC(=O)CN.Cl.Cl [Compound 33]
% inhibition of edema (1 h): 66%
Mean edema thickness (1 h): 0.82 ± 0.09 mm
% inhibition of edema (2 h): 67%
Mean edema thickness (2 h): 0.69 ± 0.03 mm
% inhibition of edema (3 h): 74%
Mean edema thickness (3 h): 0.46 ± 0.03 mm
% inhibition of edema (4 h): 88%
Mean edema thickness (4 h): 0.17 ± 0.01 mm
% inhibition of edema (24 h): 42%
Mean edema thickness (24 h): 0.48 ± 0.03 mm
Potency (% inhibition of edema relative to that of indomethacin reference standard): 101
